In patent publication US7601494B2, “Method of screening candidate compounds for susceptibility to biliary excretion” (The University of North Carolina at Chapel Hill, priority 1999, dated 2009):

Columns and labels:
[1] = test system: short-term cultured hepatocytes; experiment: Cumulative uptake in 3-hr (short-term) cultured hepatocyte monolayers, standard vs Ca2+-free buffer; type: in vitro ADME, rat; settings: 3-hr cultured hepatocytes
Procedure: Hepatocytes were isolated with a two-step perfusion method. Briefly, rats were anesthetized with ketamine and xylazine (60 and 12mg/kg i.p., respectively) prior to portal vein cannulation. The liver was perfused in situ with oxygenated Ca^2+-free Krebs-Henseleit bicarbonate buffer containing collagenase type 1 (0.5 mg/ml) for 10 min. The hepatic capsule was removed with forceps. The hepatocytes were released by shaking the liver gently in 100 ml DMEM.
The released cells were filtered through a sterile nylon mesh (70-μm). The hepatocyte suspensions were centrifuged at 50 xg for 3 min. The cell pellet was resuspended in 25 ml DMEM and an equal volume of 90% isotonic polyvinylpyrrolidone-coated silica colloid centrifugation medium (pH 7.4) sold under the registered trademark PERCOLL® by Pharmacia, Inc. of Piscataway, N.J. The resulting cell suspension was centrifuged at about 70 to about 150 xg for 5 min. The pellet was resuspended in 50 ml DMEM and the cell suspensions were combined into one tube followed by centrifugation at 50 xg for 3 min. Hepatocyte viability was determined by trypan blue exclusion. Only those hepatocyte preparations with viability greater than 90% were utilized for further studies.
Hepatocyte suspensions were prepared with DMEM containing 5% fetal calf serum, 1 μM dexamethasone and 4 mg/L insulin. Hepatocyte suspensions were added to the precoated dishes at a density of about 2-3×10^6 cells/60-mm dish. Approximately 1 hr after plating the cells, the medium was aspirated and 3-ml fresh DMEM was added. For transport studies, hepatocytes that had been seeded for 3-5 hr without collagen overlay were defined as 3-hr or short-term cultured hepatocytes.
(§1) Hepatocytes cultured in a collagen-sandwich configuration were incubated in 3 ml standard buffer or Ca^2+-free buffer at 37° C. for 10 min. After removing the incubation buffer, uptake was initiated by addition of 3 ml standard buffer containing substrate to each dish. After incubation for designated times, cumulative uptake was terminated by aspirating the incubation solution and rinsing 4 times with 3 ml ice-cold standard buffer to remove extracellular substrate. After washing, 2 ml of 1% Triton X-100 solution was added to culture dishes, and the cells were lysed by shaking the dish on a shaker for 20 min at room temperature. An aliquot (1 ml) of lysate was analyzed by liquid scintillation spectrometry. Bio-Rad DC Protein Assay Kit (Bio-Rad Laboratories, Hercules, Calif.) was used to determine the protein concentration in the culture extracts using bovine serum albumin as standard. […] All values for substrate uptake into cell monolayers were corrected for nonspecific binding to the collagen by subtracting the substrate uptake determined in the appropriate control dishes in the absence of cells as described previously.
(§2) Uptake data were normalized to the protein content and expressed as mean±SD from 3-4 separate preparations of hepatocytes. Statistical differences between mean values for the 10-min cumulative substrate uptake in the presence and absence of Ca^2+ were determined by the use of the well-known Student's t-test. A P value of <0.05 was considered significant.

[2] = Biliary excretion in bile duct cannulated rats after administration of [14C]264W94 / [14C]2169W94; type: in vivo, rat
Procedure: Male Wistar rats (250-280 g) from Charles River Laboratory (Raleigh, N.C.) were used as liver donors. Rats were housed individually in stainless-steel cages in a constant alternating 12-hr light and dark cycle at least 1 week before the study was performed, and were fed ad libitum until use. Bile duct cannulated rats (200-250 g) were obtained from Charles River (Raleigh, N.C.). The Institutional Animal Care and Use Committee at the University of North Carolina at Chapel Hill, Chapel Hill, N.C., approved all procedures.
[^14C]264W94 was formulated as a solution in a mixture of sterile water/polypropylene glycol 400/ethanol (2:1:1 v/v/v) at a concentration of 0.125 mg/mL. Following collection of pre-dose bile, [^14C]264W94 solution was administrated by caudal vein injection (0.1 mg/kg). For the 2169W94 studies, [^14C]2169W94 was prepared as a suspension at a concentration of 0.1 mg/mL in 0.5% (w/v) methylcellulose in water. Following collection of pre-dose bile, [^14C]2169W94 suspension was administrated by gavage (1.0 mg/kg). All rats were placed into individual plastic metabolism cages that allowed the rats unrestrained movement. Bile was collected into polypropylene containers surrounded by ice. For the 264W94 studies, the bile container was changed at 8 and 24 hours after the dose. […] Bile samples were stored at −20° C. until analysis.
Aliquots of cell lysate or bile samples containing 264W94 or 2169W94 were mixed with 2-fold volumes of ice-chilled acetonitrile, and centrifuged to remove precipitated proteins. The supernatant was evaporated under nitrogen at room temperature, and reconstituted in 100 μL of a 70/30 mixture of 50 mM ammonium acetate/acetonitrile/trifluoroacetic acid (95:5:0.1 v:v:v) and acetonitrile. […]
Radiocarbon that eluted from the HPLC was quantified with an on-line radioactivity detector (RADIOMATIC FLO-ONE/BETA™ Radio-Chromatography Detector Series 500 TR Series, Packard Instrument Co.). […] The concentration of the three components was determined by normalizing the eluted radioactivity in each peak to the total injected radioactivity.

[3] = test system: sandwich-cultured hepatocytes; experiment: HPLC analysis of 10-min cell lysate of 96-hr sandwich-cultured hepatocytes; type: in vitro ADME, rat; settings: 96-hr hepatocytes incubated with 3 μM [14C]264W94, 10 min
Procedure: Aliquots of cell lysate or bile samples containing 264W94 or 2169W94 were mixed with 2-fold volumes of ice-chilled acetonitrile, and centrifuged to remove precipitated proteins. The supernatant was evaporated under nitrogen at room temperature, and reconstituted in 100 μL of a 70/30 mixture of 50 mM ammonium acetate/acetonitrile/trifluoroacetic acid (95:5:0.1 v:v:v) and acetonitrile. The sample extracts were injected onto a WATERS™ […]™ C18 column (3.9×150 mm) and eluted by a 85/15 mixture of 50 mM ammonium acetate (pH 4.0) and acetonitrile; the percentage of acetonitrile was increased by a WATERS™ 600E System Controller to 55% over a period of 20 minutes, and then to 100% during the next 10 minutes.
Radiocarbon that eluted from the HPLC was quantified with an on-line radioactivity detector (RADIOMATIC FLO-ONE/BETA™ Radio-Chromatography Detector Series 500 TR Series, Packard Instrument Co.). The peaks of 264W94, 2169W94, and 2169W94 glucuronide were identified by comparing with purified standard compound. Under these conditions, baseline separation of these three components was achieved. The concentration of the three components was determined by normalizing the eluted radioactivity in each peak to the total injected radioactivity. […]

[4] = test system: hepatic cytochrome p450 isozymes; settings: Silver et al. 1996; cited from earlier work
[5] = test system: sandwich-cultured hepatocytes; experiment: Cumulative uptake, Biliary Excretion Index and in vitro biliary clearance in 96-hr sandwich-cultured hepatocytes; type: in vitro ADME, rat
Procedure: To prepare sandwich-cultured hepatocytes, neutralized collagen solution (0.1 ml, about 1.5 to about 3.0 mg/ml, pH 7.4) was added to the monolayers 24 hr after the cells were seeded. […] Medium was changed on a daily basis until the fourth day after the cells were seeded. These hepatocytes were referred to as 96-hr or long-term cultured hepatocytes.
as §1, §2
Biliary excretion of substrates in the monolayers was quantitatively assessed by the Biliary Excretion Index based on Equation 3:
[formula] where Uptakestandard and Uptake Ca^2+-free represent the cumulative uptake of substrate over a 10-min interval in the hepatocyte monolayers pre-incubated in standard buffer and in Ca^2+-free buffer, respectively.
Biliary clearance in the sandwich-cultured hepatocytes, ClB(culture) (ml/min/kg per body weight), was calculated according to Equation 4:
[formula] where Timeincubation was 10 min and Concentrationmedium represented the initial substrate concentration in the incubation medium. In some embodiments, a biliary clearance value can be calculated as the ratio of the mass in the bile canaliculi and the area under the curve (AUC) in culture medium, wherein the AUC represents the integral of candidate compound (e.g. xenobiotic concentration) in the medium from time 0 to time T (time can be measure in any desired units, and is usually measured in minutes). Indeed, the term AUC can refer to the following equation: […]

cumulative uptake in standard buffer compared to Ca2+-free buffer [1]: similar | biliary excretion in rats (in words) ([2]; in vivo): negligible biliary excretion | detection in bile in 24 hr ([2]; rats, i.v. [14C]264W94 0.24 μmol/kg): neither 264W94 nor 2169W94 was detected | total administered radioactivity recovered in bile ([2]; rats, oral administration 2.4 μmol/kg, in 8 hr, n=2): 66.4% | share of total radioactivity in cell lysate [3]: 73.0% | cumulative uptake in standard buffer compared to Ca2+-free buffer ([5]; 96-hr cultured hepatocytes): not significantly different | biliary excretion in long-term sandwich-cultured hepatocytes (in words) ([5]; 96-hr sandwich-cultured hepatocytes): lack of biliary excretion
SMILES: CCCC[C@]1(CC)CS(=O)(=O)c2cc(OC)c(OC)cc2[C@@H](c2ccccc2)N1 [264W94, (3R, 5R)-3-butyl-3-ethyl-2,3,4,5-tetrahydro-7,8-dimethoxy-5-phenyl-1,4-benzothiazepine-1,1-dioxide]
cytochrome p450 isozyme primarily involved in the metabolism [4]: CYP3A4
